Laboratory results: US20230027361A1, “METTL3 MODULATORS” (priority 2019, published 2023)
Where two headings read alike, the source gives them in different places.

What was measured:
METTL3/METTL14 = METTL3/METTL14 (Homo sapiens, UniProt Q86U44); assay: METTL3-14 Standard Enzyme Assay (METTL3 biochemical assay)
Outline: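 Tritium transfer from ³H-SAM (100 nM) to biotinylated RNA (100 nM) captured on streptavidin flashplates and counted by scintillation. Enzyme complex (2.5 nM) with compound, 5 min preincubation, 30 min reaction at ambient temperature, HEPES pH 7.5 buffer, stopped by excess unlabeled SAM.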

METTL1/WDR4 = METTL1/WDR4 (Homo sapiens, UniProt Q9UBP6); assay: METTL1 Assay (METTL1 biochemical assay)
METTL1/WDR4, sequence (Q9UBP6 whole entry, species assumed): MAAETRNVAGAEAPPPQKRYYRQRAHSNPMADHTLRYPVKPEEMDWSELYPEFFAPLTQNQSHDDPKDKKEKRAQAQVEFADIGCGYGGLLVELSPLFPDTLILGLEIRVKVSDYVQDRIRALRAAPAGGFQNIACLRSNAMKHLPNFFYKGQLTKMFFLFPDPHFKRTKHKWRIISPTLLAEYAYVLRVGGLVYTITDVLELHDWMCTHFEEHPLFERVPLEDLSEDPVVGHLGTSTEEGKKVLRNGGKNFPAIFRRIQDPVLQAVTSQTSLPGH
METTL1/WDR4, sequence (P57081 whole entry partner, species assumed): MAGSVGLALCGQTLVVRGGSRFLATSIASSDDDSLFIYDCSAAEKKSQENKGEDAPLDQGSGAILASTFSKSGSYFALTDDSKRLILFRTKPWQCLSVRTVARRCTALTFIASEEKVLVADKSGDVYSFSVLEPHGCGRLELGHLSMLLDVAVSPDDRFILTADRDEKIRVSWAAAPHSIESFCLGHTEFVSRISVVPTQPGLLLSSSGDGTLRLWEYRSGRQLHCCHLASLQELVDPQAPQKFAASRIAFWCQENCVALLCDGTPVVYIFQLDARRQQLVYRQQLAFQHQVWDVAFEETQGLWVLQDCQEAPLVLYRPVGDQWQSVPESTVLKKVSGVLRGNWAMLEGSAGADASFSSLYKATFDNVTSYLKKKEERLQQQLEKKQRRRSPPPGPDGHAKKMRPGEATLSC
Outline: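 Radiometric methyltransfer by METTL1/WDR4 (6.25 nM f.c., 5 min preincubation) at ambient temperature in HEPES pH 7.5, KCl, MgCl2, DTT; started with 25 nM 3′-biotinylated RNA and 60 nM 3H-SAM, run 20 min, quenched with 15 μM cold SAM. Product captured on streptavidin flashplates (2 h, 25° C), counted by scintillation.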

METTL16 = molecular target: T1, METTL16 (Homo sapiens, UniProt Q86W50); assay: METTL16 Assay (METTL16 biochemical assay); details: read-out: METTL16 IC50
T1 sequence (Q86W50 1-562): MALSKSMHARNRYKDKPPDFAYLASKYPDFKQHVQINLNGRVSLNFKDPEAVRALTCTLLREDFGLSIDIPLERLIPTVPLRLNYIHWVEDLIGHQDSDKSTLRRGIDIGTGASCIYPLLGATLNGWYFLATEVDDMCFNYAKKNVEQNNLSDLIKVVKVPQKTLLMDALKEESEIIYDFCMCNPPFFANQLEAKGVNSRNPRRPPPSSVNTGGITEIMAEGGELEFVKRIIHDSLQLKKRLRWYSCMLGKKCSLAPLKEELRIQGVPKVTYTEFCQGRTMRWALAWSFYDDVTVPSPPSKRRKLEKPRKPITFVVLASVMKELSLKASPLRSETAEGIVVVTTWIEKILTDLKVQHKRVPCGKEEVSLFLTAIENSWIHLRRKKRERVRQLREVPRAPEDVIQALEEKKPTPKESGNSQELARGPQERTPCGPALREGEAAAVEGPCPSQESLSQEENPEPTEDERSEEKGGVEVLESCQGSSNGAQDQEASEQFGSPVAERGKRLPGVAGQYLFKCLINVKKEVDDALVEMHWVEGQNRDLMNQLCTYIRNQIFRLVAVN
Experimental: Assays were performed in a 25 μl-volume in 384-well V-bottom polypropylene microplates (Greiner Bio-One, cat. No. 781280) at ambient temperature. Optimized 1× assay buffer was 20 mM HEPES pH 7.5, 50 mM KCl, 1 mM DTT, 0.01% Tween, 0.01% BSG, 0.004 U/μl RNAseOUT (cat. No. 10777019, ThermoFisher Scientific, Waltham, Mass.). For compound screening METTL16 (final concentration, f.c.=100 nM) was added using a Multidrop Combi (ThermoFisher Scientific, Waltham, Mass.) and preincubated for 5 min. Reactions were started by adding 3′ biotinylated RNA ([…]-biotin) (f.c.=50 nM), 3H-SAM (f.c.=200 nM) and non-radiolabeled SAM (f.c.=800 nM) substrates. Reactions proceeded for 20 minutes and were quenched with excess non-radioactive SAM (f.c.=100 μM). The reactions were then transferred to streptavidin-coated flashplates and incubated for 2 hours at 25° C. Following two washing cycles with 0.1% Tween-20, the plates were sealed and read on a TopCount (PerkinElmer, Waltham, Mass.) plate-based scintillation counter. For determination of kinetic parameters, reaction times were optimized so that measurements were taken during the initial velocity phase of the reaction.

PRMT5-MEP50 = PRMT5-MEP50 (Homo sapiens, UniProt O14744); assay: PRMT5 Assay (PRMT5 biochemical assay)
PRMT5-MEP50, sequence (O14744 whole entry): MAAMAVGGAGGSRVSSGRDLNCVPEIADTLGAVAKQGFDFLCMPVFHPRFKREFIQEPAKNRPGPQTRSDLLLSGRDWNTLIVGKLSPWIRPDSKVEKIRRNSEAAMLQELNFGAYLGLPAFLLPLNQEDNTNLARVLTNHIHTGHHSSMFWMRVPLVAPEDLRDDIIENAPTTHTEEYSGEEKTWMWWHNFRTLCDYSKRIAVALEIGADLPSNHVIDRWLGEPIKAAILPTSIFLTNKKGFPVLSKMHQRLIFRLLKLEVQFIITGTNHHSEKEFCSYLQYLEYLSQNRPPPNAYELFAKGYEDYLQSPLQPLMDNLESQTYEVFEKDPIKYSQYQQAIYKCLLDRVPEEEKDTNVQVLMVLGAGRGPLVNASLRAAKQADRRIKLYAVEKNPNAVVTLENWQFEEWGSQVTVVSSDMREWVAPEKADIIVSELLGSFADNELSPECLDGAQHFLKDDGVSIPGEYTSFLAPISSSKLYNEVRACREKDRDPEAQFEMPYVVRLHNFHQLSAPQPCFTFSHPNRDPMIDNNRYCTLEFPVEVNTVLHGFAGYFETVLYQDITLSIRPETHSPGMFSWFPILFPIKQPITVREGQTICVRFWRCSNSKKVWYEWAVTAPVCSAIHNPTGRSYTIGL
PRMT5-MEP50, sequence (Q9BQA1 whole entry partner): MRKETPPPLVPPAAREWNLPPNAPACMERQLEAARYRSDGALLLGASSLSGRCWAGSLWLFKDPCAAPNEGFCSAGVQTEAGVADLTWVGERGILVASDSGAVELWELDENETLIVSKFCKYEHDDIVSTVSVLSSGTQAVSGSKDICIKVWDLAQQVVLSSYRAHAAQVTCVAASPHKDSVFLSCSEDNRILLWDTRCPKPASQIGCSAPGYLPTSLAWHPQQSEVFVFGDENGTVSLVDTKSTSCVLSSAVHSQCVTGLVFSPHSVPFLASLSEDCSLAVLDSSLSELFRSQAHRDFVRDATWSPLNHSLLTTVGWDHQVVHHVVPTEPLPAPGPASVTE
Outline: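 Radiometric methyltransferase read-out: after 60 min reaction, excess unlabelled SAM (15 μM) stops turnover and biotinylated H4 peptide (100 nM) carrying 3H-methyl from 250 nM 3H-SAM is captured on streptavidin flashplates (2 h, 25° C) for scintillation counting. Enzyme, 2.5 nM PRMT5-MEP50, was preincubated 5 min with compound in pH 8.0 Tris buffer with DTT and Tween.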

MOLM-13 cells = assay: MOLM-13 96 Hour Cell Proliferation Assay; type: cell-based; details: Homo sapiens
Experimental: MOLM-13 (DSMZ) cells were seeded at 600 cells per well in a volume of 44 μL in a Greiner Bio-One CELLSTAR™ 384 Well Polystyrene Cell Culture clear bottom microplate in RPMI 1640 media containing 10% fetal bovine serum using a Multidrop Combi (ThermoFisher Scientific). Cells were incubated overnight at 37° C. in a humidified tissue culture incubator. To prevent evaporation or to reduce edge effect, add 50 μL or more H2O to an empty plate, cover, and place on top of the cell plates. The Mosquito® HTS Liquid Handler was used to make a compound/media intermediate plate by aliquoting 1 μL of compound from the initial compound dilution plate (concentrations ranging from 10.0 mM to 38.0 nM in 100% DMSO) into Bio-One 384-well polypropylene conical bottom microplate containing 49 μL of media containing the appropriate serum (50-fold dilution, 2% DMSO, compound concentrations ranging from 200.0 μM and […]). The Apricot liquid handling system was used to transfer 6.2 μL compounds from the intermediate plate into the seeding plate containing 44 μL cells (8-fold dilution spanning concentrations 25.0 μM to […], 0.25% DMSO final), and placed in a humidified tissue culture incubator at 37° C. After 96 hours, 25 μL of Cell Titer-Glo reagent (Promega) was added to each well using an Integra liquid handling system. The plate was protected from light using TopSeal-A (Black) film over the entire plate, added White Bottom seal film on the bottom of the entire plate for a better reading on the Envision, and placed on an IKA plate shaker for at 300 rpm for 10 minutes at room temperature. The plate was read on an EnVision plate reader (Perkin Elmer) using the Ultra Sensitive Luminescence protocol. Data analysis was performed by normalizing the raw luminescence units to an average of the positive control values for staurosporine (100% cell death) and the negative control values for DMSO (0% cell death). An IC50 was calculated using a 4-parameter logistic nonlinear regression model in GraphPad Prism.

[1] = tested on: m6A in cellular mRNA of MOLM-13 cells; assay: m6A-mRNA LC-MS/MS Assay (m6A cellular assay); type: cell-based; details: Homo sapiens, MOLM-13, read-out: m^6A IC50
Experimental: Cells were harvested by centrifugation followed by mRNA extraction using DIRECT Dynabeads mRNA DIRECT kit (Life Technologies). mRNA was quantified on NanoDrop spectrophotometer (Thermo Fisher Scientific) and digested into single nucleosides using Nucleoside Digestion Mix (New England Biolabs). […] Quantification is performed in comparison with the standard curve, obtained from pure nucleoside standards (Selleck Chemicals) running with the same batch of samples. Percentage m^6A in cellular mRNA is calculated as 100*(m^6A/A).

[2] = METTL3 biochemical assay, read-out: METTL3 IC50
[3] = read-out: METTL1 IC50, METTL1 biochemical assay
[4] = PRMT5 biochemical assay, read-out: PRMT5 IC50

METTL3/METTL14, sequence (Q86U44 whole entry, species assumed): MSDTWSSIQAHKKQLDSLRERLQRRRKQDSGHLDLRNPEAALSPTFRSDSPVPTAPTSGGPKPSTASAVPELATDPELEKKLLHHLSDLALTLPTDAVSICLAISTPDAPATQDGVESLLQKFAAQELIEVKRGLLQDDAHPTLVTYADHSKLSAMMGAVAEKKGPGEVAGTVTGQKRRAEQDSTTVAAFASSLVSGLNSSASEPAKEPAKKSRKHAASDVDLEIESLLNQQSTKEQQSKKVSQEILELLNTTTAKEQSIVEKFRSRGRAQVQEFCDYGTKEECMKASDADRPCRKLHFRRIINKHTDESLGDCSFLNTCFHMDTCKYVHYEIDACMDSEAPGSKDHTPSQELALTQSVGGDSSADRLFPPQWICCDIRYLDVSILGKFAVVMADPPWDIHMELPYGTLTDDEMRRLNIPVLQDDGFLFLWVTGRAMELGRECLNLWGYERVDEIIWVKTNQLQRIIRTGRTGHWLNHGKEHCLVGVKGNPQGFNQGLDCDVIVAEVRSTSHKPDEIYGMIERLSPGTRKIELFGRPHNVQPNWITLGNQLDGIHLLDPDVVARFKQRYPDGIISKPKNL
METTL3/METTL14, sequence (Q9HCE5 whole entry partner, species assumed): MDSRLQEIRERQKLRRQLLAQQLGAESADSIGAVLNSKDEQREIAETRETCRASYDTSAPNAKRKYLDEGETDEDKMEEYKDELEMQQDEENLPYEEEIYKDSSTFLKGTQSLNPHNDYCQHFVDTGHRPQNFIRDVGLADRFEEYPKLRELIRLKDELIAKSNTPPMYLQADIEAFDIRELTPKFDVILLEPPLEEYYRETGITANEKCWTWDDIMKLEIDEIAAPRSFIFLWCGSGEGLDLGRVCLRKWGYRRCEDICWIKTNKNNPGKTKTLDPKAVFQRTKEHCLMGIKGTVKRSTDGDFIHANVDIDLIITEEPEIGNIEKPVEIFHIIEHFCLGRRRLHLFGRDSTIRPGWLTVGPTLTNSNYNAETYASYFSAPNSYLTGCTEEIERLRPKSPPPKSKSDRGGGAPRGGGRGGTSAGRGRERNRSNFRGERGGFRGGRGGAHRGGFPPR

SMILES: CNc1ccc2cnc(OC[C@H]3O[C@@H](n4cc(Br)c5c(N)ncnc54)[C@H](O)[C@@H]3O)nc2n1 [I-74]
- IC50 (METTL3/METTL14; [2]): > 1000 nM
- IC50 (METTL1/WDR4; [3]): > 1000 nM
- IC50 (METTL16): > 1000 nM
- IC50 (PRMT5-MEP50; [4]): 100 to 1000 nM
- IC50 (MOLM-13 cells; MOLM-13, 96 h): > 10000 nM

SMILES: Nc1ncnc2c1ccn2[C@@H]1C[C@H](COc2ccc3ccc(N4CCCC4)nc3c2)[C@@H](O)[C@H]1O [I-82]
- IC50 (METTL3/METTL14; [2]): 100 to 1000 nM
- IC50 (METTL1/WDR4; [3]): > 1000 nM
- IC50 (METTL16): > 1000 nM
- IC50 (PRMT5-MEP50; [4]): 100 to 1000 nM

SMILES: Nc1ncnc2c1ccn2[C@@H]1C[C@H](CCc2ccc3ccc(N4CCCC4)nc3c2)[C@@H](O)[C@H]1O [I-83]
- IC50 (METTL3/METTL14; [2]): 100 to 1000 nM
- IC50 (METTL1/WDR4; [3]): > 1000 nM
- IC50 (METTL16): > 1000 nM
- IC50 (PRMT5-MEP50; [4]): 10 to 100 nM

SMILES: Cc1cn2ccc(CC[C@H]3C[C@@H](n4ccc5c(N)ncnc54)[C@H](O)[C@@H]3O)cc2n1 [I-84]
- IC50 (METTL3/METTL14; [2]): > 1000 nM
- IC50 (METTL1/WDR4; METTL1 biochemical assay, read-out: METTL1 IC50): > 1000 nM
- IC50 (METTL16): > 1000 nM
- IC50 (PRMT5-MEP50; [4]): < 10 nM

SMILES: CNc1ccc2ccc(OC[C@@H]3C[C@@H](O)[C@H](n4cc(C5CCCC5)c5c(N)ncnc54)O3)cc2n1 [I-141]
- IC50 (METTL3/METTL14; [2]): 100 to 1000 nM
- IC50 (METTL1/WDR4; [3]): > 1000 nM
- IC50 (METTL16): > 1000 nM
- IC50 (PRMT5-MEP50; [4]): 100 to 1000 nM

SMILES: Cn1ccc(-c2cn([C@@H]3C[C@H](COc4ccc5ccc(N6CCC6)nc5c4)[C@@H](O)C3)c3ncnc(N)c23)n1 [I-169, (1S,2R,4R)-4-[4-amino-5-(1-methyl-1H-pyrazol-3-yl)-7H-pyrrolo[2,3-d]pyrimidin-7-yl]-2-({[2-(azetidin-1-yl)quinolin-7-yl]oxy}methyl)cyclopentan-1-ol]
- IC50 (METTL3/METTL14): < 10 nM
- IC50 (PRMT5-MEP50): > 1000 nM
- IC50 [1]: 1000 to 10000 nM
- IC50 (MOLM-13 cells): 1000 to 10000 nM

SMILES: Cn1ccc(-c2cn([C@@H]3C[C@H](CCc4ccc5ccc(N6CCC6)nc5c4)[C@@H](O)C3)c3ncnc(N)c23)n1 [I-205]
- IC50 (METTL3/METTL14): < 10 nM
- IC50 (PRMT5-MEP50): > 1000 nM
- IC50 [1]: 1000 to 10000 nM
- IC50 (MOLM-13 cells): < 1000 nM

SMILES: Cc1ccn(-c2cn([C@@H]3O[C@H](COc4ccc5ccc(N6CCC6)nc5c4)[C@@H](O)[C@@H]3F)c3ncnc(N)c23)n1 [I-218]
- IC50 (METTL3/METTL14): < 10 nM
- IC50 (PRMT5-MEP50): > 1000 nM
- IC50 [1]: 1000 to 10000 nM
- IC50 (MOLM-13 cells): 1000 to 10000 nM

SMILES: CNc1ccc2ccc(OC[C@H]3O[C@@H](n4ccc5c(N)nc(C(=O)OC)nc54)[C@@H](F)[C@@H]3O)cc2n1 [I-223]
- IC50 (METTL3/METTL14; [2]): > 1000 nM
- IC50 (METTL1/WDR4): > 1000 nM
- IC50 (METTL16): > 1000 nM
- IC50 (PRMT5-MEP50; [4]): > 1000 nM
